Data on 6 molecules can be found in PMC10096449, “Anti-SARS-CoV-2 Activity and Cytotoxicity of Amaryllidaceae Alkaloids from Hymenocallis littoralis” (Molecules, 2023).

Where only a bound is given, the exact number is not on record here.

For one data set, the system named is SARS-CoV-2.
Test: not given
The settings on record: in Vero cells; ref Jin et al. [32]; read-out: EC50 (anti-SARS-CoV-2 activity); cited from earlier work. On the set-up: method as in Jin et al. [32].
As to `O[C@H]1[C@H]2c3cc4c(cc3CN3CCC(=C[C@@H]1O)[C@H]23)OCO4` [Compound 6, lycorine], the EC50 was 0.878 ± 0.022 µM.

A further data set deals with Vero-E6.
Test: not given
On the set-up: method as in Ren et al. [33]. The settings on record: ref Ren et al. [33]; cited from earlier work.
Consider `O[C@H]1[C@H]2c3cc4c(cc3CN3CCC(=C[C@@H]1O)[C@H]23)OCO4` [Compound 6, lycorine], for which the CC50 is over 1000 µM.

Test system in the next data set: not given
Test: not given
Also on record: method as in Zhang et al. [31]. The settings on record: ref Zhang et al. [31]; cited from earlier work.
With `O[C@H]1[C@H]2c3cc4c(cc3CN3CCC(=C[C@@H]1O)[C@H]23)OCO4` [Compound 6, lycorine], the CC50 is over 40 µM.

A further data set has as its system Huh-7.
Test: not given
On the set-up: method as in Ren et al. [33]. The conditions noted are these: ref Ren et al. [33]; cited from earlier work.
As to `O[C@H]1[C@H]2c3cc4c(cc3CN3CCC(=C[C@@H]1O)[C@H]23)OCO4` [Compound 6, lycorine], the CC50 is 0.834 ± 0.063 µM.

The next data set deals with SARS-CoV-2.
Test: not given
The settings on record: RT-PCR read-out after 18–24 h; ref Zhang et al. [31]; read-out: EC50 (anti-SARS-CoV-2 activity); cited from earlier work. On the set-up: method as in Zhang et al. [31].
Take `O[C@H]1[C@H]2c3cc4c(cc3CN3CCC(=C[C@@H]1O)[C@H]23)OCO4` [Compound 6, lycorine]: the EC50 was 0.18 µM.

The test system of a further data set is Vero-E6 cells.
Test: not given
Details: not given
Regarding `COc1cc2c(cc1O)C1C(O)C(O)C=C3CCN(C2)C31` (single isomer, unassigned; (+)) [Compound 3, (+)-2-epi-pseudolycorine], the “cytotoxicity on Vero-E6 cells (in words)” value is reported as “lacked antiviral activity, as well as cytotoxicity”.
Turning to `COc1cc2c(cc1O)[C@@H]1[C@H](O)[C@H](O)C=C3CCN(C2)[C@H]31` [Compound 2, (−)-2-epi-pseudolycorine], the “cytotoxicity on Vero-E6 cells (in words)” value was “lacked antiviral activity, as well as cytotoxicity”.
Still for that read-out and setting: the same measure for `[O-]c1cc2c3c(c1)c1cc4c(cc1c[n+]3CC2)OCO4` [Compound 9, ungeremine]: “lacked antiviral activity, as well as cytotoxicity”.

The data set is the same for the next values; noted with them: listed as ungeremine.
Take `[O-]c1cc2c3c(c1)c1cc4c(cc1c[n+]3CC2)OCO4` [Compound 9, ungeremine]: the “cytotoxicity on Vero-E6 cells (in words)” value was “eliminated cytotoxicity on the Vero-E6 cell line”.

The same data set, now with this note: single experiment (duplicate experiments listed).
`O[C@H]1[C@H]2c3cc4c(cc3CN3CCC(=C[C@@H]1O)[C@H]23)OCO4` [Compound 6, lycorine]: the CC50 amounted to 1.14 µM.
As for `O=C1N[C@H]2[C@H](O)[C@H](O)[C@@H](O)[C@H](O)[C@@H]2c2cc3c(c(O)c21)OCO3` [Compound 10, pancratistatin], the CC50 is 0.122 µM.

Another data set deals with HEK293T.
Test: not given
Also on record: method as in Ren et al. [33]. The conditions noted are these: ref Ren et al. [33]; cited from earlier work.
For the molecule `O[C@H]1[C@H]2c3cc4c(cc3CN3CCC(=C[C@@H]1O)[C@H]23)OCO4` [Compound 6, lycorine], the CC50 is 1.04 ± 0.0734 µM.

A further data set concerns SARS-CoV-2. As to the kind of experiment: microbe, parasite or virus in culture.
Details: not given
Type of data set: cell-based, SARS-CoV-2 isolate BetaCov/Belgium/GHB-03021/2020.
For `COc1cc2c(cc1O)[C@@H]1[C@H](O)[C@H](O)C=C3CCN(C2)[C@H]31` (racemic) [Compounds 2 and 3, (±)-2-epi-pseudolycorine], the “antiviral activity against SARS-CoV-2 (in words)” value (shortened to “antiviral activity”) is listed as “loss of the antiviral activity”.
For `COc1cc2c(cc1O)C1C(O)C(O)C=C3CCN(C2)C31` (single isomer, unassigned; (+)) [Compound 3, (+)-2-epi-pseudolycorine], the “antiviral activity” value is given as “lacked antiviral activity”.
As to `COc1cc2c(cc1O)[C@@H]1[C@H](O)[C@H](O)C=C3CCN(C2)[C@H]31` [Compound 2, (−)-2-epi-pseudolycorine], the “antiviral activity” value is recorded as “lacked antiviral activity”.
On to `O[C@H]1[C@H]2c3cc4c(cc3CN3CCC(=C[C@@H]1O)[C@H]23)OCO4` [Compound 6, lycorine], for which the “antiviral activity” value is “lacked selective antiviral activity”.
Same read-out and setting: to `[O-]c1cc2c3c(c1)c1cc4c(cc1c[n+]3CC2)OCO4` [Compound 9, ungeremine] belongs “lacked antiviral activity”.
With `O=C1N[C@H]2[C@H](O)[C@H](O)[C@@H](O)[C@H](O)[C@@H]2c2cc3c(c(O)c21)OCO3` [Compound 10, pancratistatin], the “antiviral activity” value is “lacked selective antiviral activity”.

Still in this data set, the particulars now being: Severe acute respiratory syndrome coronavirus 2, 96 h, […]; read-out: EC50 (anti-SARS-CoV-2 activity).
Turning to `COc1cc2c(cc1O)[C@@H]1[C@H](O)[C@H](O)C=C3CCN(C2)[C@H]31` (racemic) [Compounds 2 and 3, (±)-2-epi-pseudolycorine], the EC50 was over 100 µM.
With `O[C@H]1[C@H]2c3cc4c(cc3CN3CCC(=C[C@@H]1O)[C@H]23)OCO4` [Compound 6, lycorine], the EC50 was over 100 µM.
On to `[O-]c1cc2c3c(c1)c1cc4c(cc1c[n+]3CC2)OCO4` [Compound 9, ungeremine], for which the EC50 was over 100 µM.

Staying with this data set, now noted: Severe acute respiratory syndrome coronavirus 2; read-out: IC50.
Turning to `COc1cc2c(cc1O)[C@@H]1[C@H](O)[C@H](O)C=C3CCN(C2)[C@H]31` (racemic) [Compounds 2 and 3, (±)-2-epi-pseudolycorine], the IC50 is over 100 µM.
Regarding `O[C@H]1[C@H]2c3cc4c(cc3CN3CCC(=C[C@@H]1O)[C@H]23)OCO4` [Compound 6, lycorine], the IC50 is over 100 µM.
Regarding `[O-]c1cc2c3c(c1)c1cc4c(cc1c[n+]3CC2)OCO4` [Compound 9, ungeremine], the 50% inhibitory concentration (IC50) was over 100 µM.
On the same count and under the same terms, to `O=C1N[C@H]2[C@H](O)[C@H](O)[C@@H](O)[C@H](O)[C@@H]2c2cc3c(c(O)c21)OCO3` [Compound 10, pancratistatin] belongs over 100 µM.

Still in this data set, the particulars now being: Severe acute respiratory syndrome coronavirus 2; read-out: av. IC50.
With `COc1cc2c(cc1O)[C@@H]1[C@H](O)[C@H](O)C=C3CCN(C2)[C@H]31` (racemic) [Compounds 2 and 3, (±)-2-epi-pseudolycorine], the IC50 was over 100 µM.
In the case of `O[C@H]1[C@H]2c3cc4c(cc3CN3CCC(=C[C@@H]1O)[C@H]23)OCO4` [Compound 6, lycorine], the IC50 is over 100 µM.
As to `[O-]c1cc2c3c(c1)c1cc4c(cc1c[n+]3CC2)OCO4` [Compound 9, ungeremine], the IC50 was over 100 µM.
For `O=C1N[C@H]2[C@H](O)[C@H](O)[C@@H](O)[C@H](O)[C@@H]2c2cc3c(c(O)c21)OCO3` [Compound 10, pancratistatin], the IC50 was over 100 µM.

The data set is the same for the next values; noted with them: listed as ungeremine.
As to `[O-]c1cc2c3c(c1)c1cc4c(cc1c[n+]3CC2)OCO4` [Compound 9, ungeremine], the “antiviral activity” value was “did not improve its anti-SARS-CoV-2 potency”.

Test system in the next data set: not listed separately
Briefly: in vitro. The conditions noted are these: African green monkey, CC50 (cytotoxicity on Vero-E6 cells), MTS-assay, absence of virus.
In the case of `COc1cc2c(cc1O)[C@@H]1[C@H](O)[C@H](O)C=C3CCN(C2)[C@H]31` (racemic) [Compounds 2 and 3, (±)-2-epi-pseudolycorine], the CC50 is over 100 µM.
For `O[C@H]1[C@H]2c3cc4c(cc3CN3CCC(=C[C@@H]1O)[C@H]23)OCO4` [Compound 6, lycorine], the CC50 stood at 1.2 µM.
On to `[O-]c1cc2c3c(c1)c1cc4c(cc1c[n+]3CC2)OCO4` [Compound 9, ungeremine], for which the CC50 is over 100 µM.
The molecule `O=C1N[C@H]2[C@H](O)[C@H](O)[C@@H](O)[C@H](O)[C@@H]2c2cc3c(c(O)c21)OCO3` [Compound 10, pancratistatin] had a CC50 of 0.13 µM.

The data set is the same for the next values; noted with them: African green monkey, CC50 (µM), single experiment (duplicate experiments listed), Vero-E6 cells.
As to `COc1cc2c(cc1O)[C@@H]1[C@H](O)[C@H](O)C=C3CCN(C2)[C@H]31` (racemic) [Compounds 2 and 3, (±)-2-epi-pseudolycorine], the CC50 is over 100 µM.
`O[C@H]1[C@H]2c3cc4c(cc3CN3CCC(=C[C@@H]1O)[C@H]23)OCO4` [Compound 6, lycorine] registered a CC50 of 1.28 µM.
`[O-]c1cc2c3c(c1)c1cc4c(cc1c[n+]3CC2)OCO4` [Compound 9, ungeremine] gave a CC50 of over 100 µM.
The molecule `O=C1N[C@H]2[C@H](O)[C@H](O)[C@@H](O)[C@H](O)[C@@H]2c2cc3c(c(O)c21)OCO3` [Compound 10, pancratistatin] showed a CC50 of 0.14 µM.

Still in this data set, the particulars now being: African green monkey, av. CC50 (µM), average of two experiments, Vero-E6 cells.
For the molecule `COc1cc2c(cc1O)[C@@H]1[C@H](O)[C@H](O)C=C3CCN(C2)[C@H]31` (racemic) [Compounds 2 and 3, (±)-2-epi-pseudolycorine], the CC50 was over 100 µM.
Take `O[C@H]1[C@H]2c3cc4c(cc3CN3CCC(=C[C@@H]1O)[C@H]23)OCO4` [Compound 6, lycorine]: the CC50 was determined as 1.21 µM.
`[O-]c1cc2c3c(c1)c1cc4c(cc1c[n+]3CC2)OCO4` [Compound 9, ungeremine] returned a CC50 of over 100 µM.

A further data set concerns HEK293.
Test: not given
Also on record: method as in Jin et al. [32]. The conditions noted are these: on HEK293; ref Jin et al. [32]; cited from earlier work.
As for `O[C@H]1[C@H]2c3cc4c(cc3CN3CCC(=C[C@@H]1O)[C@H]23)OCO4` [Compound 6, lycorine], the CC50 was over 10 µM.

For the next data set, the system named is SARS-CoV-2.
Test: not given
On the set-up: method as in Ren et al. [33]. The conditions noted are these: in the Vero-E6 cell; ref Ren et al. [33]; read-out: EC50 (anti-SARS-CoV-2 activity); cited from earlier work.
`O[C@H]1[C@H]2c3cc4c(cc3CN3CCC(=C[C@@H]1O)[C@H]23)OCO4` [Compound 6, lycorine]: the EC50 was 0.439 ± 0.122 µM.
